# Laboratory results as given in patent US20250122181A1, “BENZIMIDAZOLES AS MODULATORS OF IL-17” (Janssen Pharmaceutica NV, priority 2021, published 2025).
# Assays:
# [1] = test system: IL-17A-induced G-CSF production in human normal keratinocyte (NHK); test: NHK Assay: IL-17A-induced G-CSF production in human normal keratinocyte; assay type: cell-based; conditions: 24 h, IL-17A 5 ng/mL, simple average if tested more than once
# In short: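 IC50 derives from G-CSF in supernatants, quantified by HTRF from a standard curve, with CellTiter-Glo viability compared to DMSO control. Before a 24 h, 37°C culture of normal human keratinocytes at 3000–4000 cells/well, compound dilutions were preincubated 1 h at rt with human IL-17A (5 ng/mL final), with 0.2% DMSO and 5% FBS.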
# [2] = target: T1, IL-17A(FLAG-Tagged): IL-17RA(His-Tagged) (Homo sapiens, UniProt Q16552, K93Q); test: IL-17A(FLAG-Tagged): IL-17RA(His-Tagged) Binding Disruption Eu-HTRF Assay, Protocol 1; conditions: Protocol 1, FLAG tagged IL-17A 2.5 nM; simple average if tested more than once
# T1 sequence (Q16552 with tags, fused parts or gaps K93Q): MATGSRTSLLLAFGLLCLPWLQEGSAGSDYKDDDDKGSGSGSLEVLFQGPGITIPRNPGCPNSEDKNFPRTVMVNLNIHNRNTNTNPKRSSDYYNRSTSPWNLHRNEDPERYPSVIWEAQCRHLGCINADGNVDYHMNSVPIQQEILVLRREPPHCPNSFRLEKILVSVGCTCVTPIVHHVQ
# In short: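 IC50 came from a one-site competition fit of the acceptor/donor (665/620 nm) HTRF ratio. His-tagged IL-17RA, Eu-anti-FLAG and D2-anti-His were added after a 1 h rt compound preincubation with FLAG-tagged IL-17A dimer in PBS/0.01% Triton X-100, followed by 2 h at rt before reading.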
# [3] = target: T1, IL-17A(FLAG-Tagged): IL-17RA(His-Tagged); test: IL-17A(FLAG-Tagged): IL-17RA(His-Tagged) Binding Disruption Eu-HTRF Assay, Protocol 2; conditions: Protocol 2, FLAG tagged IL-17A 1 nM; simple average if tested more than once
# Source text: An antibody directed against the FLAG tag of IL-17A (SEQ ID NO: 1) is labeled with the HTRF donor chromophore (Europium-cryptate). IL-17A is present as a dimer that is “locked into” this quaternary structure due to the formation of loop-spanning […] disulfide bridges. The construct of IL-17RA used in the assay excludes the […] portion of the receptor and is fused to a C-terminal 10×His tag (SEQ ID NO:2). An antibody directed against the His tag of the IL-17RA chimera is labeled with the HTRF acceptor chromophore (“D2”). The fluorescence-resonance energy transfer (FRET) depends on the vicinity of the donor chromophore to the acceptor, and interruption of the binding between the IL-17A and IL-17RA causes the reduction/loss of FRET. Therefore, this assay allows to evaluate the compound effect on the binding IL-17A and IL-17RA by monitoring the fluorescence intensity of donor vs acceptor. The assay was run using either Protocol 1 or Protocol 2 as described below.
# Protocol 2. 40 nl of 2-fold serial diluted compound solution for total 22 dilution points is added into each well of a 1536-well, white, low-volume, non-binding plate (Greiner #782904), then 2 μl of FLAG tagged IL-17A at 2× final concentration (1 nM) in solution of PBS+0.01% Triton-X100 is added to each well. The assay plate is briefly centrifuged then incubated for 1 h at rt. A mixed solution is prepared containing 2×5 nM 10HIS×IL-17RA, 2×2.5 nM Eu-anti-FLAG (CISBIO), 2×5 nM D2-anti-HIS (CISBIO) in PBS+0.01% Triton-X100+200 mM Potassium Fluoride (Sigma 60238) and 2 μl of mix is added to each well of the assay plate. The plate is briefly centrifuged then incubated for 2 h at rt. The HTRF intensities at the wavelength of donor (615 nm) and acceptor (665 nm) are measured using BMG Pherastar. The ratio between intensities at two wavelengths is calculated and plotted against the compound concentration and the data is fitted to a one-site competition model to yield IC50 of the compound.
SMILES,"IC50 ([1]; Homo sapiens, Keratinocyte)",IC50 [2],IC50 [3],IC50 [1]
"[2H]C1([2H])[C@H](C(F)(F)F)NC(=O)N1[C@H](COC)c1ccc2[nH]c([C@H](COC(C)(C)C(F)(F)F)NC(=O)c3nonc3C)nc2c1 (relative stereo) [Example 54, N—((R*)-1-(5-((S)-2-methoxy-1-((R*)-2-oxo-4-(trifluoromethyl)imidazolidin-1-yl-5,5-d2)ethyl)-1H-benzo[d]imidazol-2-yl)-2-((1,1,1-trifluoro-2-methylpropan-2-yl)oxy)ethyl)-4-methyl-1,2,5-oxadiazole-3-carboxamide]",< 50 nM,< 50 nM,< 50 nM,
"C[C@H](c1ccc2[nH]c(C(COC(C)(C)C(F)(F)F)NC(=O)c3nonc3C3CC3)nc2c1)N1C[C@@H](C(F)(F)F)NC1=O (single isomer, unassigned) [Example 7, 4-Cyclopropyl-N—((R*)-1-(5-((R)-1-((S)-2-oxo-4-(trifluoromethyl)imidazolidin-1-yl)ethyl)-1H-benzo[d]imidazol-2-yl)-2-((1,1,1-trifluoro-2-methylpropan-2-yl)oxy)ethyl)-1,2,5-oxadiazole-3-carboxamide]",< 50 nM,< 50 nM,< 50 nM,
"CC(C)(OC[C@H](NC(=O)c1nonc1C1CC1)c1nc2cc(CN3C[C@@H](C(F)(F)F)NC3=O)ccc2[nH]1)C(F)(F)F (single isomer, unassigned) [Example 17]",< 50 nM,< 50 nM,< 50 nM,
"CC(C)n1ncc(F)c1C(=O)N[C@@H](COC(C)(C)C(F)(F)F)c1nc2cc(CN3CC(C(F)(F)F)NC3=O)ccc2[nH]1 (single isomer, unassigned) [Example 32, 4-Fluoro-1-isopropyl-N—((R)-1-(5-(((S*)-2-oxo-4-(trifluoromethyl)imidazolidin-1-yl)methyl)-1H-benzo[d]imidazol-2-yl)-2-((1,1,1-trifluoro-2-methylpropan-2-yl)oxy)ethyl)-1H-pyrazole-5-carboxamide]",50 to 100 nM,< 50 nM,< 50 nM,
"COC[C@H](c1ccc2[nH]c(C(COC(C)(C)C(F)(F)F)NC(=O)c3ncnn3C(C)C)nc2c1)N1CC(F)(F)CNC1=O (single isomer, unassigned) [Example 52, N—((R*)-1-(5-((S)-1-(5,5-Difluoro-2-oxotetrahydropyrimidin-1(2H)-yl)-2-methoxyethyl)-1H-benzo[d]imidazol-2-yl)-2-((1,1,1-trifluoro-2-methylpropan-2-yl)oxy)ethyl)-1-isopropyl-1H-1,2,4-triazole-5-carboxamide]",< 50 nM,< 50 nM,< 50 nM,
"COC[C@H](c1ccc2[nH]c(C(NC(=O)c3nonc3C)[C@@H](C)OC(C)(C)C(F)(F)F)nc2c1)N1C[C@@H](C(F)(F)F)NC1=O (single isomer, unassigned) [Example 74, N-[(1R*,2R)-1-[5-[(1S)-2-Methoxy-1-[(4S)-2-oxo-4-(trifluoromethyl)imidazolidin-1-yl]ethyl]-1H-benzimidazol-2-yl]-2-(2,2,2-trifluoro-1,1-dimethyl-ethoxy)propyl]-4-methyl-1,2,5-oxadiazole-3-carboxamide]",< 50 nM,,< 50 nM,
"COC[C@H](c1ccc2nc(C(NC(=O)c3nonc3C3CC3)[C@@H](C)O[C@H](C)C(F)(F)F)[nH]c2c1F)N1C[C@@H](C(F)(F)F)NC1=O (single isomer, unassigned) [Example 94, 4-Cyclopropyl-N-((1S*,2R)-1-(7-fluoro-6-((S)-2-methoxy-1-((S)-2-oxo-4-(trifluoromethyl)imidazolidin-1-yl)ethyl)-1H-benzo[d]imidazol-2-yl)-2-(((R)-1,1,1-trifluoropropan-2-yl)oxy)propyl)-1,2,5-oxadiazole-3-carboxamide]",< 50 nM,,< 50 nM,
"COC[C@H](c1ccc2nc(C(NC(=O)c3nonc3C3CC3)[C@@H](C)O[C@H](C)C(F)(F)F)[nH]c2c1F)N1C[C@@H](C(F)(F)F)NC1=O (single isomer, unassigned) [Example 95, 4-Cyclopropyl-N-((1R*,2R)-1-(7-fluoro-6-((S)-2-methoxy-1-((S)-2-oxo-4-(trifluoromethyl)imidazolidin-1-yl)ethyl)-1H-benzo[d]imidazol-2-yl)-2-(((R)-1,1,1-trifluoropropan-2-yl)oxy)propyl)-1,2,5-oxadiazole-3-carboxamide]",,,< 50 nM,< 50 nM
"COC[C@H](c1ccc2nc(C(NC(=O)c3nonc3C)[C@@H](C)O[C@H](C)C(F)(F)F)[nH]c2c1F)N1C[C@@H](C(F)(F)F)NC1=O (single isomer, unassigned) [Example 96, N-((1S*,2R)-1-(7-Fluoro-6-((S)-2-methoxy-1-((S)-2-oxo-4-(trifluoromethyl)imidazolidin-1-yl)ethyl)-1H-benzo[d]imidazol-2-yl)-2-(((R)-1,1,1-trifluoropropan-2-yl)oxy)propyl)-4-methyl-1,2,5-oxadiazole-3-carboxamide]",< 50 nM,,50 to 100 nM,
"COC[C@H](c1ccc2nc(C(NC(=O)c3nonc3C)[C@@H](C)O[C@H](C)C(F)(F)F)[nH]c2c1F)N1C[C@@H](C(F)(F)F)NC1=O (single isomer, unassigned) [Example 97, N-((1R*,2R)-1-(7-Fluoro-6-((S)-2-methoxy-1-((S)-2-oxo-4-(trifluoromethyl)imidazolidin-1-yl)ethyl)-1H-benzo[d]imidazol-2-yl)-2-(((R)-1,1,1-trifluoropropan-2-yl)oxy)propyl)-4-methyl-1,2,5-oxadiazole-3-carboxamide]",,,< 50 nM,< 50 nM
"C[C@@H](OC1CC1)[C@H](NC(=O)c1nonc1C1CC1)c1nc2cc([C@@H](COC3CC3)N3C[C@@H](C(F)(F)F)NC3=O)ccc2[nH]1 [Example 69, N-((1R,2R)-2-Cyclopropoxy-1-(5-((S)-2-cyclopropoxy-1-((S)-2-oxo-4-(trifluoromethyl)imidazolidin-1-yl)ethyl)-1H-benzo[d]imidazol-2-yl)propyl)-4-cyclopropyl-1,2,5-oxadiazole-3-carboxamide]",< 50 nM,,< 50 nM,
"Cc1nonc1C(=O)N[C@H](c1nc2cc([C@@H](COC3CC3)N3C[C@@H](C(F)(F)F)NC3=O)ccc2[nH]1)[C@@H](C)OC1CC1 [Example 70, N-((1R,2R)-2-Cyclopropoxy-1-(5-((S)-2-cyclopropoxy-1-((S)-2-oxo-4-(trifluoromethyl)imidazolidin-1-yl)ethyl)-1H-benzo[d]imidazol-2-yl)propyl)-4-methyl-1,2,5-oxadiazole-3-carboxamide]",< 50 nM,,< 50 nM,
"C[C@@H](OC1CC1)[C@H](NC(=O)c1nonc1C1CC1)c1nc2cc([C@@H](COC3CC3)N3CC(F)(F)CNC3=O)ccc2[nH]1 [Example 71, N-((1R,2R)-2-Cyclopropoxy-1-(5-((S)-2-cyclopropoxy-1-(5,5-difluoro-2-oxotetrahydropyrimidin-1(2H)-yl)ethyl)-1H-benzo[d]imidazol-2-yl)propyl)-4-cyclopropyl-1,2,5-oxadiazole-3-carboxamide]",< 50 nM,,< 50 nM,
"CC(C)n1ncc(F)c1C(=O)N[C@H](c1nc2cc([C@@H](COC3CC3)N3CC(F)(F)CNC3=O)ccc2[nH]1)[C@@H](C)OC1CC1 [Example 72, N-((1R,2R)-2-Cyclopropoxy-1-(5-((S)-2-cyclopropoxy-1-(5,5-difluoro-2-oxotetrahydropyrimidin-1(2H)-yl)ethyl)-1H-benzo[d]imidazol-2-yl)propyl)-4-fluoro-1-isopropyl-1H-pyrazole-5-carboxamide]",50 to 100 nM,,< 50 nM,
"Cc1nonc1C(=O)N[C@H](c1nc2cc([C@@H](COC3CC3)N3CC(F)(F)CNC3=O)ccc2[nH]1)[C@@H](C)OC1CC1 [Example 73, N-((1R,2R)-2-Cyclopropoxy-1-(5-((S)-2-cyclopropoxy-1-(5,5-difluoro-2-oxotetrahydropyrimidin-1(2H)-yl)ethyl)-1H-benzo[d]imidazol-2-yl)propyl)-4-methyl-1,2,5-oxadiazole-3-carboxamide]",< 50 nM,,< 50 nM,
